Among the test systems are UO-31 renal; SR leukemia; SN12C renal; NCI-H226 lung; OVCAR-8 ovarian; K-562 leukemia; SK-MEL-2 melanoma; SF-268 CNS; OVCAR-3 ovarian; MDA-MB-231 breast.
What all share (assay): NCI anticancer screen, dose series, 48 h

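How tested: cells in 96-well plates exposed to compound for 48 hours at five concentrations. GI50 = concentration required for 50% inhibition of growth. The concentration for full growth arrest is given as TGI.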 Where only a bound is given, the exact number is not on record here.

In the case of `COC(=O)C1Cc2c(n(Cc3ccccc3)c3ccccc23)C(CCC(=O)O)N1C(C)C` (configuration not stated), the TGI in the test on UO-31 renal, in the test on SR leukemia, with SN12C renal, in the test on NCI-H226 lung, with OVCAR-8 ovarian and with K-562 leukemia was greater than 100 µM throughout. Moreover, the TGI in the test with SK-MEL-2 melanoma, in the test with SF-268 CNS and with OVCAR-3 ovarian was greater than 100 µM throughout.
For `CCC[CH2][Sn]1([CH2]CCC)[O]Cc2nc(C)ccc2[O]1`, the GI50 with UO-31 renal is 13.3 µM; in the test with SR leukemia, 2.95 µM; in the test on SN12C renal, 11.3 µM; in the test with NCI-H226 lung, 14 µM; with OVCAR-8 ovarian, 9.1 µM; in the test on K-562 leukemia it was 3.17 µM. Also, the GI50 in the test on SK-MEL-2 melanoma is 3.32 µM; with OVCAR-3 ovarian, 5.05 µM. Besides, the TGI with UO-31 renal is 26.1 µM; with SR leukemia, 12.7 µM; with SN12C renal, 23.3 µM; with NCI-H226 lung it was 27.1 µM; with OVCAR-8 ovarian, 21.7 µM; in the test with K-562 leukemia it was 10.5 µM. In addition, the TGI in the test on SK-MEL-2 melanoma was determined as 8.8 µM; in the test on OVCAR-3 ovarian it was 17 µM.
Turning to `Oc1ccc(NCc2nc3ccccc3[nH]2)cc1`, the GI50 is greater than 100 µM in the test with UO-31 renal; 53.8 µM in the test on SR leukemia; 61.4 µM in the test on SN12C renal; greater than 100 µM with NCI-H226 lung; 26.8 µM in the test with OVCAR-8 ovarian; 22.8 µM in the test on SK-MEL-2 melanoma. In addition, the GI50 with SF-268 CNS is 35.3 µM; with MDA-MB-231 breast, 38.4 µM; with OVCAR-3 ovarian, 33.8 µM. Besides, the TGI was greater than 100 µM with UO-31 renal; greater than 100 µM in the test with SR leukemia; greater than 100 µM in the test on SN12C renal; greater than 100 µM in the test with NCI-H226 lung; greater than 100 µM in the test with OVCAR-8 ovarian; 98.8 µM in the test with SK-MEL-2 melanoma. The TGI with SF-268 CNS, in the test on MDA-MB-231 breast and in the test with OVCAR-3 ovarian was greater than 100 µM throughout.
In the case of `Cc1cccc(C)c1NC(=O)C(=O)C1C(=O)NC(=O)NC1=O`, the TGI in the test on UO-31 renal, in the test on SR leukemia, in the test with SN12C renal, in the test on NCI-H226 lung, in the test on OVCAR-8 ovarian and with K-562 leukemia was greater than 100 µM each time. For the same compound, the TGI in the test on SF-268 CNS and in the test on OVCAR-3 ovarian was greater than 100 µM in each case.
Consider `COC(=O)/C(=N/NC(=O)C[N+](C)(C)C)C(C(=O)OC)C(=O)C(=O)Nc1ccc(F)cc1` (configuration not stated), for which the TGI in the test with UO-31 renal, in the test with SR leukemia, in the test with SN12C renal, in the test with NCI-H226 lung, in the test on K-562 leukemia and in the test with SK-MEL-2 melanoma was greater than 100 µM throughout. In addition, the TGI in the test on SF-268 CNS and with OVCAR-3 ovarian was greater than 100 µM each time.
As to `COc1cc(C2=NOC(c3cc(OC)c(OC)c(OC)c3)C2)ccc1OCCCCOc1cc2c(cc1OC)C(=O)N1CCC[C@H]1C=N2` (some centres not stated), the GI50 with UO-31 renal was 0.239 µM; with SR leukemia, 0.279 µM; with SN12C renal it was 0.358 µM; in the test with OVCAR-8 ovarian it was 0.39 µM; in the test on K-562 leukemia, 1.72 µM; in the test on SK-MEL-2 melanoma, 0.241 µM. Moreover, the GI50 is 0.4 µM with SF-268 CNS, 0.235 µM in the test on MDA-MB-231 breast and 0.322 µM with OVCAR-3 ovarian. For the same compound, the TGI worked out at 0.745 µM in the test with UO-31 renal; 3.51 µM in the test with SN12C renal; 10.9 µM in the test on OVCAR-8 ovarian; 0.612 µM with SK-MEL-2 melanoma; 5.68 µM in the test on SF-268 CNS; 0.75 µM with MDA-MB-231 breast. Moreover, the TGI in the test with OVCAR-3 ovarian was found to be 2.51 µM.
Regarding `COc1ccc(-c2cnnc3c(-c4cccc(C(F)(F)F)c4)cnn23)cc1`, the GI50 is greater than 100 µM in the test on SR leukemia; 3.07 µM with SN12C renal; 2.64 µM in the test on NCI-H226 lung; 3.33 µM with OVCAR-8 ovarian; greater than 100 µM with K-562 leukemia; 1.43 µM in the test with SK-MEL-2 melanoma. In addition, the GI50 in the test with SF-268 CNS is 1.78 µM; in the test on MDA-MB-231 breast, 3.55 µM; in the test on OVCAR-3 ovarian, 2.55 µM. Besides, the TGI in the test on SR leukemia is greater than 100 µM; in the test on SN12C renal, greater than 100 µM; in the test with NCI-H226 lung it was greater than 100 µM; in the test with OVCAR-8 ovarian, greater than 100 µM; in the test on K-562 leukemia it was greater than 100 µM; with SK-MEL-2 melanoma, 79.8 µM. Also, the TGI in the test with SF-268 CNS was 7.4 µM; with MDA-MB-231 breast it was greater than 100 µM; in the test on OVCAR-3 ovarian, 6.45 µM.
For the compound `O=C1c2cc(Cl)ccc2S(=O)(=O)c2c(NCCCNCCO)nc3ccccc3c21`, the GI50 is 1.13 µM in the test with UO-31 renal; 0.466 µM in the test on SR leukemia; 1.25 µM with SN12C renal; 10.1 µM in the test on NCI-H226 lung; 1.86 µM with OVCAR-8 ovarian; 1.93 µM in the test with SK-MEL-2 melanoma. In addition, the GI50 with SF-268 CNS is 1.7 µM; in the test on MDA-MB-231 breast, 1.49 µM; in the test on OVCAR-3 ovarian, 0.478 µM. In addition, the TGI with UO-31 renal stood at 2.36 µM; with SR leukemia, 5.11 µM; in the test on SN12C renal, 2.51 µM; with NCI-H226 lung it was 22.7 µM; in the test with OVCAR-8 ovarian it was 4.53 µM; in the test on SK-MEL-2 melanoma it was 4.74 µM. Further, the TGI in the test with SF-268 CNS was found to be 4.37 µM; in the test on MDA-MB-231 breast it was 2.94 µM; in the test with OVCAR-3 ovarian it was 1.66 µM.
In the case of `CC[C@@]1(O)C(=O)OCc2c1cc1n(c2=O)Cc2c-1nc1cc3c(cc1c2CCl)OCO3`, the GI50 is less than 0.01 µM in the test with UO-31 renal; less than 0.01 µM in the test on SR leukemia; less than 0.01 µM with SN12C renal; less than 0.01 µM with NCI-H226 lung; less than 0.01 µM in the test with OVCAR-8 ovarian; 0.206 µM with SK-MEL-2 melanoma. The GI50 with SF-268 CNS was less than 0.01 µM; in the test on MDA-MB-231 breast, 1.38 µM; in the test on OVCAR-3 ovarian, 0.333 µM. In addition, the TGI with UO-31 renal is 0.756 µM; in the test with SN12C renal it was 0.367 µM; in the test with NCI-H226 lung, 1.3 µM; in the test on OVCAR-8 ovarian, 0.602 µM; with SK-MEL-2 melanoma, 1.22 µM; with SF-268 CNS, 4.62 µM. Moreover, the TGI was 20.7 µM with MDA-MB-231 breast and 3.07 µM in the test on OVCAR-3 ovarian.
For `O=C1CCC2(c3ccc(F)cc3)Nc3cc(Cl)ccc3N12` (configuration not stated), the TGI with UO-31 renal, in the test with SR leukemia, in the test on SN12C renal, in the test with NCI-H226 lung, in the test on OVCAR-8 ovarian and in the test with K-562 leukemia was greater than 100 µM throughout. Further, the TGI in the test with SK-MEL-2 melanoma, in the test on SF-268 CNS and in the test on OVCAR-3 ovarian was greater than 100 µM throughout.

Values taken from PubChem BioAssay (NCI).
